In ChEMBL document CHEMBL3351644, “Tryptophanol-derived oxazolopiperidone lactams: identification of a hit compound as NMDA receptor antagonist” (Bioorg Med Chem Lett, 2014):

Assays:
[1] = target: Glutamate NMDA receptor; assay: Antagonist activity at NMDA receptor in Wistar rat cerebellar granule neurons assessed as inhibition of NMDA-induced intracellular calcium by Fura-2 fluorescence assay; format: cell-based
[2] = target: Glutamate NMDA receptor (Rattus norvegicus) (UniProt P35439+Q00959+Q00960+Q00961+Q62645+Q8VHN2+Q9R1M7); assay: Ratio of amantadine IC50 to compound IC50 for NMDA receptor in Wistar rat cerebellar granule neurons assessed as inhibition of NMDA-induced intracellular calcium by Fura-2 fluorescence assay; format: cell-based

Row | IC50 [1] [µM] | Ratio IC50 [2] | SMILES
1 | > 450 | – | COC(=O)C[C@H]1CC(=O)N2[C@H](Cc3c[nH]c4ccccc34)CO[C@H]2C1
2 | > 450 | – | O=C1CCC[C@H]2OC[C@@H](Cc3c[nH]c4ccccc34)N12
3 | > 450 | – | Cn1cc(C[C@@H]2CO[C@H]3CCCC(=O)N23)c2ccccc21
4 | 429 | – | O=C1CCC[C@H]2OC[C@H](Cc3c[nH]c4ccccc34)N12
5 | > 450 | – | CC[C@@H]1CCC(=O)N2[C@H](Cc3c[nH]c4ccccc34)CO[C@@H]12
6 | > 450 | – | CC[C@@H]1CCC(=O)N2[C@@H](Cc3c[nH]c4ccccc34)CO[C@@H]12
7 | 305 | – | O=C1CCC[C@@H]2OC[C@H](Cc3c[nH]c4ccccc34)N12
8 | > 450 | – | Cc1ccc(S(=O)(=O)n2cc(C[C@@H]3CO[C@H]4CCCC(=O)N34)c3ccccc32)cc1
9 | > 450 | – | COC(=O)C[C@@H]1CC(=O)N2[C@@H](Cc3c[nH]c4ccccc34)CO[C@@H]2C1
10 | > 450 | – | CC[C@H]1CCC(=O)N2[C@@H](Cc3c[nH]c4ccccc34)CO[C@H]12
11 | > 450 | – | COC(=O)C[C@@H]1CC(=O)N2[C@H](Cc3c[nH]c4ccccc34)CO[C@@H]2C1
12 | > 450 | – | COC(=O)C[C@H]1CC(=O)N2[C@@H](Cc3c[nH]c4ccccc34)CO[C@@H]2C1
13 | 341 | – | O=C1CC[C@@H]2OC[C@@H](Cc3c[nH]c4ccccc34)N12
14 | > 450 | – | CC[C@H]1CCC(=O)N2[C@H](Cc3c[nH]c4ccccc34)CO[C@H]12
15 | 63.4 | 1.5 | O=C1CCC[C@@H]2OC[C@@H](Cc3c[nH]c4ccccc34)N12
